# Test results reported in US20070178523A1, “Novel druggable regions in set domain proteins, and methods of using the same” (Emory University, priority 2002, published 2007).
# Entries after “also recorded” stand apart in the source; their conditions may differ.
# Key:
# [1] = molecular target: T1, DIM-5 (Neurospora crassa, UniProt Q8X225); experiment: AdoMet-binding assay by UV crosslinking; design: A segment of the wild-type dim-5 ORF, including amino acid residues 17-318, was amplified; GST (N, cleaved yes); made in house; host or cells: E. coli BL21(DE3) Codon plus RIL carrying pXC379 (pGEX2T); species or system N. crassa; conditions: incubation of metal chelator with DIM-5 protein
# T1 sequence (Q8X225 30-331): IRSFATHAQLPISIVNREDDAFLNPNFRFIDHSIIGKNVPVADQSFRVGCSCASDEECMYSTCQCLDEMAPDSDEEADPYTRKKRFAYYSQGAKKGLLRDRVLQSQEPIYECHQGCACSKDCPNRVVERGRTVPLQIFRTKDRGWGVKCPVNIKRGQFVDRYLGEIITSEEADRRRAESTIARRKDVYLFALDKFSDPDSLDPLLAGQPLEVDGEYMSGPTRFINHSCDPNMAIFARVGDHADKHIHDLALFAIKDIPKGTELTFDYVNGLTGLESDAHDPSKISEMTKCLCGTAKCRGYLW
# Procedure: Twenty μl of purified DIM-5 protein (2-5 μg) was incubated with 0.5 μCi of [methyl-^3H]AdoMet (78 Ci/mmol, NEN NET155H) overnight at 4° C. Samples were added to a 96-well plate on ice and placed 8 cm from an inverted UV transilluminator (VWR, 302 nm) for 1 hr. The protein was then separated by SDS-PAGE, stained with Coomassie and subjected to fluorography.
# [2] = molecular target: T1, DIM-5; experiment: Methyl transfer (HKMT) activity assay; format: biochemical, N. crassa; design: A segment of the wild-type dim-5 ORF, including amino acid residues 17-318, was amplified; GST (N, cleaved yes); made in house; host or cells: E. coli BL21(DE3) Codon plus RIL carrying pXC379 (pGEX2T); conditions: for DIM-5 activity after incubation with metal chelator: incubation of metal chelator with DIM-5 protein
# Procedure: The activity of the DIM-5 was assayed in a 20 μl reaction containing 50 mM glycine (pH 9.8), 2 mM DTT, 40-80 μM unlabelled AdoMet (Sigma), 0.5 μCi [methyl-^3H]AdoMet (78 Ci/mmol, NEN NET155H), 0.25-0.5 μg of DIM-5 protein, and 2-5 μg histones (calf thymus histones Sigma H4524, Roche 223565, or recombinant chicken erythrocyte histones, a gift from Dr. V. Ramakrishnan). The reaction was incubated at room temperature for 10-15 min and methylation was analyzed either by SDS-PAGE and fluorography, or by precipitation with 20% TCA, filtration (Milipore GF/F filter), washing and liquid scintillation counting. Under these conditions, DIM-5 activity was linearly related to reaction time and amount of enzyme and AdoMet and histone were saturating. For some reason, the relatively crude Sigma H4524 histone preparations generally gave 2-4 fold higher incorporation than either the Roche preparations or the recombinant histones.
# [3] = molecular target: T1, DIM-5; conditions: when EDTA completely abolished DIM-5 activity
# Procedure: To remove zinc bound to EDTA, the protein was either dialyzed (Exp1) or subjected to gel filtration chromatography (Exp2) against 20 mM glycine (pH 9.8), 5% glycerol, 0.5 mM DTT and 1 mM EDTA.
# One sample of untreated and two samples of EDTA treated DIM-5 protein (about 2 ml of 2 mg/ml each) was analyzed for the presence of 20 elements on a Thermo Jarrell-Ash Enviro 36 ICAP analyzer at the Chemical Analysis Laboratory of the University of Georgia at Athens. In order to calculate the molar ratio of Zn to protein, the precise concentration of the untreated DIM-5 protein was determined by amino acid analysis (averaging two independent measurements) performed at the Keck Facilities at Yale University. The extinction coefficient (29,559 M^−1 cm^−1) derived from the amino acid analysis was used to estimate the protein concentration of the EDTA-treated samples.
Structure (SMILES),AdoMet-binding [1],DIM-5 activity after incubation with metal chelator [2],zinc ions retained by the protein [3] [zinc ions],HKMT activity ([2]; DIM-5 incubated with 20 mM EDTA for 2 days),inhibition of DIM-5 activity ([2]; 100 mM NaCl)
"c1cnc2c(c1)ccc1cccnc12 [phenanthroline, 1,10-phenanthroline]",significantly reduced,inhibited its activity,,,
O=C(O)CN(CCN(CC(=O)O)CC(=O)O)CC(=O)O [EDTA],significantly reduced,inhibited its activity; also recorded: completely abolished,~2.9,no longer detectable,
[Cl-].[Na+] [NaCl],,,,,about 95%
